Patent US20240319212A1, “METHOD OF MEASURING THE ENDOCYTIC VITAMIN D STATUS” (Immundiagnostik AG, priority 2018, published 2024)
Entries after “also recorded” stand apart in the source; their conditions may differ.

Experiments:
albumin = albumin (Homo sapiens, UniProt P02768); conditions: cited from earlier work
DBP [1] = target: T1, DBP (Homo sapiens, UniProt P02774); conditions: cited from earlier work
T1 sequence (P02774 17-474): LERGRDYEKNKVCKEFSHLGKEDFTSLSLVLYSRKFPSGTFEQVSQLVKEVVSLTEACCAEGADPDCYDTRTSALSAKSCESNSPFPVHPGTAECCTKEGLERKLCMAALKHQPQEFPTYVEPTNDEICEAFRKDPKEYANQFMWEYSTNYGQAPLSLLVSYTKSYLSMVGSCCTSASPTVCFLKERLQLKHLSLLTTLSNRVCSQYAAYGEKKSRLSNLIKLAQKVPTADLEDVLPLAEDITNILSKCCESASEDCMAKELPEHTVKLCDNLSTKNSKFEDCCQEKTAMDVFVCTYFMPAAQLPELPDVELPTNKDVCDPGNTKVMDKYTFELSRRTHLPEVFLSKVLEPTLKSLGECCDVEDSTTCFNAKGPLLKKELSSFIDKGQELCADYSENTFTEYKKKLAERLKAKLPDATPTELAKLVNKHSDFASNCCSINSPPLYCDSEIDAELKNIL

megalin M2 fragment = target: T2, megalin M2 fragment (Homo sapiens, UniProt P02774+P98164); experiment: Microscale thermophoresis of DBP:VD-metabolite bound by megalin M2 fragment; assay type: binding; conditions: M2 titrated; for Kd: labelled DBP 50 nM mixed with metabolite 37.8 nM, read-out: dissociation constant Kd, megalin M2 fragment to complex DBP:vitamin D metabolite
T2 construct: megalin signal peptide (M1-G25) (N, cleaved yes); made in house
T2 sequence (P98164 1024-1429 limits assumed): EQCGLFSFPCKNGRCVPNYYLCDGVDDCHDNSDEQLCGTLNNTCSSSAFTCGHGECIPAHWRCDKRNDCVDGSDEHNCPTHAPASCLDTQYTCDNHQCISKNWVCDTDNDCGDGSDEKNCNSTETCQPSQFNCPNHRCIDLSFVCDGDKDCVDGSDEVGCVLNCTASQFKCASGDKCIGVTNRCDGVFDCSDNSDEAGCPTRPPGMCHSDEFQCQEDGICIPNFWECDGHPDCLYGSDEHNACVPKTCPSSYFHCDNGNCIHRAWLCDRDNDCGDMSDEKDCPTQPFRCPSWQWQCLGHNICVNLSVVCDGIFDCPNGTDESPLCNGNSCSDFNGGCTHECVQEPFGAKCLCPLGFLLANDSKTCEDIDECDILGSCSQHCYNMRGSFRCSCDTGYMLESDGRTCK
T2 sequence (P02774 17-474): T1 sequence (P02774 17-474)
Experimental: Purified megalin M2 was titrated in different concentrations. The dissociation constant Kd was calculated for every condition. The binding affinity was assessed by the dissociation constant Kd.
(§1) Microscale Thermophoresis assay. […] Parameters: laser power, 100%; LED, 80; laser on-time, 30 seconds; laser off-time, 5 seconds; temperature, 25° C. FNorm: normalized fluorescence; Kd: dissociation constant.

DBP [2] = target: T1, DBP; experiment: Microscale thermophoresis of DBP and vitamin D metabolites; assay type: binding; parameters: purchased Merck 345802; conditions: for binding affinity of vitamin D metabolite to DBP, in words: MST, comparison between metabolites; for Kd: NT-647 labelled DBP, metabolite titrated, read-out: dissociation constant Kd, DBP to vitamin D metabolite
Experimental: The binding properties of DBP and 25(OH)VD3, 25(OH)VD2, 24,25(OH)VD and 3C-epimer of 25(OH)D3 on the one hand and megalin on the other was further examined using microscale thermophoresis. […] The vitamin D metabolites were titrated with different concentrations. The dissociation constant Kd was calculated for every interaction partner. The binding affinity was assessed via the obtained dissociation constant Kd.
as §1

Chain of albumin (P02768 25-609, species assumed): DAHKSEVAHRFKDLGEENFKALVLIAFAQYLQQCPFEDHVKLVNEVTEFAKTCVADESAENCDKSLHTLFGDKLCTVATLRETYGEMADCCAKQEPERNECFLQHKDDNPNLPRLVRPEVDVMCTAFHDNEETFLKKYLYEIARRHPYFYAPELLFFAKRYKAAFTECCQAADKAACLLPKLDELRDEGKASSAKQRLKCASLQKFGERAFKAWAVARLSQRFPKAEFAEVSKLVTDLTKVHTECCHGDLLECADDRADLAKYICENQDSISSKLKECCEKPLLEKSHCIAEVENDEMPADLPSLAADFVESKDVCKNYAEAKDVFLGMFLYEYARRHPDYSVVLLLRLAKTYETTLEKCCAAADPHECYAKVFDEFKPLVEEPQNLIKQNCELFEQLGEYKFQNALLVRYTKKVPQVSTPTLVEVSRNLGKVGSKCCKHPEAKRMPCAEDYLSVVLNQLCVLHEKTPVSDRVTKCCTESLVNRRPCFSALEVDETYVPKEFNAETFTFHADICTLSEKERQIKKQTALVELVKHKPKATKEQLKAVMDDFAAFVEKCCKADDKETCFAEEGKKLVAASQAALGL

25-hydroxyvitamin D [25(OH)D]
affinity Ka for albumin (albumin): 600000 M⁻¹
affinity Ka for DBP (DBP [1]): 7e+08 M⁻¹

C=C1CC[C@@H](O)C/C1=C/C=C1\CCC[C@]2(C)[C@@H]([C@H](C)CCCC(C)(C)O)CC[C@@H]12 [3C-epi25(OH)VD3, C3-epimer of 25-hydroxyvitamin D3]
affinity of megalin M2 to DBP:metabolite complex, in words (megalin M2 fragment; labelled DBP 50 nM mixed with metabolite): very high affinity
binding affinity of vitamin D metabolite to DBP, in words (DBP [2]): bound most strongly
binding affinity of vitamin D metabolite to DBP, in words (DBP [2]; listed as 3C epimer of 25(OH)D3): high binding affinity

C=C1CC[C@H](O)C/C1=C/C=C1\CCC[C@]2(C)[C@@H]([C@H](C)CCC(O)C(C)(C)O)CC[C@@H]12 (stereo partly drawn) [24,25(OH)VD, 24,25-dihydroxyvitamin D]
Kd (megalin M2 fragment): 171 nM
binding affinity of vitamin D metabolite to DBP, in words (DBP [2]): slightly weaker; also recorded: marginally lower

C=C1CC[C@H](O)C/C1=C/C=C1\CCC[C@]2(C)[C@@H]([C@H](C)/C=C/[C@H](C)C(C)(C)O)CC[C@@H]12 [25(OH)VD2, 25-hydroxyvitamin D2]
Kd (megalin M2 fragment): 160 nM
binding affinity of vitamin D metabolite to DBP, in words (DBP [2]): comparable to Kd of DBP-VD3
Kd (DBP [2]): 2.81 nM

C=C1CC[C@H](O)C/C1=C/C=C1\CCC[C@]2(C)[C@@H]([C@H](C)CCCC(C)(C)O)CC[C@@H]12 [25(OH)VD3, 25-hydroxyvitamin D3]
Kd (megalin M2 fragment): 33.7 nM
Kd (DBP [2]): 1.88 nM
